Data reported in PubChem BioAssay (NCI).
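In this assay, cells in 96-well plates receive the compound at five concentrations for 48 hours. Endpoints are linearly interpolated between the surrounding concentrations. GI50 marks 50% less growth. The concentration for full growth arrest is given as TGI.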

Assays:
Assay in all cases: NCI-60 cell line screen, 48 h
[1] = system: DU-145 prostate
[2] = system: TK-10 renal
[3] = system: UACC-62 melanoma
[4] = system: ACHN renal
[5] = system: SN12C renal
[6] = system: 786-0 renal
[7] = system: SR leukemia
[8] = system: BT-549 breast
[9] = system: NCI-H23 lung
[10] = system: U251 CNS

SMILES | GI50 [1] [µM] | TGI [1] [µM] | GI50 [2] [µM] | TGI [2] [µM] | GI50 [3] [µM] | TGI [3] [µM] | GI50 [4] [µM] | TGI [4] [µM] | GI50 [5] [µM] | TGI [5] [µM] | GI50 [6] [µM] | TGI [6] [µM] | GI50 [7] [µM] | TGI [7] [µM] | GI50 [8] [µM] | TGI [8] [µM] | GI50 [9] [µM] | TGI [9] [µM] | GI50 [10] [µM] | TGI [10] [µM]
CCN(CC)CCC(CNc1c2ccc(Cl)cc2nc2ccc(OC)cc12)c1ccccc1 (stereo not given) | 1.32 | 6.09 | 0.915 | 2.8 | 1.58 | 3.06 | 1.05 | 3.19 | 1.15 | 4.98 | 1.38 | 3.11 | 0.323 | 1.18 | 1.97 | 3.78 | 1.5 | 3.55 | 1.56 | 3.21
O=C(NC(c1ccccc1)C(O)C(=O)OCc1ccc2c(c1)C(=O)c1ccccc1C2=O)c1ccccc1 (stereo not given) |  | > 100 |  | 53.2 |  | 53 |  | 43.7 |  | 47.9 |  | 6.4 |  | > 88.3 |  | > 100 |  | 34.5 |  | 18.3
CCOC(=O)C(Cc1ccc(N(CCCl)CCCl)cc1)NC(=O)C(CC(C)C)NC(C)=O (stereo not given) | 0.472 | 4.41 | 1.98 | 4.87 | 0.659 | 2.19 | 0.173 | 1.42 | 0.999 | 10.9 | 1.38 | 4.38 | 0.0344 | 6.89 | 7.07 | 21.7 | 0.679 | 2.68 | 1.39 | 8.13
C#Cc1cccc(NC(=O)Nc2cccc(NC(=O)CCl)c2)c1 | > 82.5 | > 82.5 | 38 | > 82.5 | 33.1 | > 82.5 | 41.5 | > 82.5 | 17.3 | 49.9 | 25 | > 82.5 | 12.9 | > 82.5 | 16.3 | > 82.5 | 14 | 31.2 | 16.4 | 39.3
Oc1c(Br)cc(Br)c2cccnc12 | 3.72 | 40.3 | 14.2 | > 100 | 2.16 | 7.37 | 3.48 | 18.6 | 3.23 | 35.2 | 2.52 | 5.91 | 3.07 | 13.7 | 4 | > 100 | 3.56 | 23.6 | 3.34 | 18.8
Cn1cc(C2=C(c3cn(CCCSC(=N)N)c4ccccc34)C(=O)NC2=O)c2ccccc21 | 4.78 | 12.5 | 3.88 | 10.7 | 2.54 | 5.7 | 4.42 | 9.31 | 1.83 | 5.56 | 4.71 | 10.9 | 0.585 | 1.69 | 4.83 | 10.8 | 3.32 | 9.72 | 1.61 | 5.06
C/C=C\C(C)=C/C(C)C(=O)CC(O)CC1CC(=O)NC(=O)C1 (stereo not given) |  | > 100 |  | > 100 |  | > 64.1 |  | > 100 |  | > 100 |  | > 100 |  | > 63.1 |  | > 100 |  | > 100 |  | > 100
N#CC1=C(N)Oc2c(ccc3ccccc23)C1c1ccccc1Cl (stereo not given) | 0.432 | 12.3 | 4.95 | 44.1 | 0.677 | 17.7 | 0.718 | 19.6 | 0.722 | 13.9 | 0.754 | 16.4 | 0.107 | 22.1 | 1.2 | 7.74 | 0.474 | 17.3 | 0.407 | 17.1
